Patent US12600712B2 (Hoffmann-La Roche Inc., priority 2020, dated 2026)

target: T1, human Autotaxin (ATX) (Homo sapiens, UniProt Q13822); test: Human ATX enzyme inhibition assay (LPC substrate, choline oxidase/HRP/Amplex Red coupled format); format: biochemical; settings: recombinant hATX 1 nM, 18:1 LPC 30 μM, fluorescence at 90 min minus 5 min
T1 construct: used as template in overlapping PCR to generate a full length human ENPP2 ORF with or without a 3′-6×His tag; 6xHis (C); made in house; host or cells: FreeStyle 293-F cells (transient transfection, protein purified from culture supernatant)
Description: Human ATX Enzyme Inhibition Assay
To identify inhibitors of the human Autotaxin (ATX) enzyme an in-vitro biochemical profiling assay has been developed using lysophosphatidylcholine (LPC) as substrate and recombinant enzyme. ATX activity is assayed via a coupled enzyme format where choline produced from LPC hydrolysis is converted to hydrogen peroxide by choline oxidase (CO). Hydrogen peroxide is in turn used as a co-substrate by horseradish peroxidase (HRP) to oxidise Amplex Red® and generate the red-fluorescent product, Resorufin.
50 mM Tris-HCl (pH 8.0); 120 mM NaCl; 20 mM CaCl2); 5 mM KCl; 1 mM MgCl2; 0.01% Triton X-100, sterile-filtered and stored at 4° C.
50 mM Tris-HCl (pH 8.0); 150 mM NaCl human Autotaxin (hATX): 0.97 mg/ml (9.718 μM) Molecular weight 99817. Working solution of 1.5 μM used in this assay.
100 mM 18:1 LPC dissolved in reagent dilution-buffer.
500 U/ml Choline Oxidase in reagent dilution buffer.
2540 U/ml Horseradish Peroxidase, in reagent dilution buffer (10.95 mg/ml).
20 mM Amplex Red (10-Acetyl-3,7-dihydroxy-phenoxazin) in DMSO.
Black, 384-well plate, black with clear bottom, non-treated surface.
Test compounds are received pre-diluted in DMSO as an 11-point concentration-response (0.5 mM highest concentration; 1 in 3.162 dilution). Test compounds are pre-diluted 1:1 (10 μL compound+10 μL assay buffer) in a 96-well conical bottomed plate prior to use.
ATX is diluted to 2.2 nM in assay buffer. Choline oxidase and horseradish peroxidase are diluted to 7.3 U/ml and 14.7 U/ml, respectively. 18:1 LPC and Amplex Red® are diluted to 110 μM and 183.3 μM, respectively (solution protected from light). 2.2 μL of compound pre-dilution or 50% DMSO is added to the reaction plate followed by 25 μL of ATX or assay buffer (negative control). Assay plate is mixed and incubated at room temperature for 10 mins. 15 μL of choline oxidase/horseradish peroxidase is then added. To initiate the reaction 15 μL of LPC 18:1/Amplex Red is added. Assay plate is mixed and incubated at room temperature in the dark. Fluorescence is measured at 5 mins (for background subtraction) and 90 mins.
• hATX: 1 nM • 18:1 LPC: 30 μM • Choline Oxidase: 2 U/ml • Horse Radish Peroxidase: 4 U/ml • Amplex Red®: 50 μM • DMSO: 2%
Fluorescence at 5-minutes is subtracted from the 90-minute end point data and normalized with respect to the positive control. IC50 values are calculated.
Results in the enzymatic ATX inhibition assay are provided for compounds of formula (I).

IC50 [nM]	Compound
20.8	N#Cc1cc(Cl)cc2c1CC(Nc1ncc(C(=O)N3CCC34COC4)cn1)C2 (stereo not shown) [Example 4, 2-((5-(6-oxa-1-azaspiro[3.3]heptane-1-carbonyl)pyrimidin-2-yl)amino)-6-chloro-2,3-dihydro-1H-indene-4-carbonitrile]
101	Cc1c(Cl)ccc2c1CC(Nc1ncc(C(=O)N3CCC34COC4)cn1)C2 (stereo not shown) [Example 6]
13	O=C(c1cnc(NC2Cc3cc(Cl)cc(Cl)c3C2)nc1)N1CCC12COC2 (stereo not shown) [Example 1]
184	O=C(c1cnc(NC2Cc3cc(Cl)cc(C(F)(F)F)c3C2)nc1)N1CCC12COC2 (stereo not shown) [Example 10, (2-((6-chloro-4-(trifluoromethyl)-2,3-dihydro-1 H-inden-2-yl)amino)pyrimidin-5-yl)(6-oxa-1-azaspiro[3.3]heptan-1-yl)melhanone]
224	O=C(c1cnc(NC2Cc3cc(Cl)cc(OC(F)F)c3C2)nc1)N1CCC12COC2 (stereo not shown) [Example 5]
3	N#Cc1cc(Cl)cc2c1C[C@@H](Nc1ncc(C(=O)N3CCC34CC(F)(F)C4)cn1)C2 [Example 13, (S)-6-chloro-2-((5-(6,6-difluoro-1-azaspiro[3.3]heptane-1-carbonyl)pyrimidin-2-yl)amino)-2,3-dihydro-1H-indene-4-carbonitrile]
23.7	CC#Cc1cc(Cl)cc2c1CC(Nc1ncc(C(=O)N3CCC34COC4)cn1)C2 (stereo not drawn) [Example 7, (2-((6-chloro-4-(prop-l-yn-1-yl)-2,3-dihydro-lH-inden-2-yl)amino)pyrimidin-5-yl)(6-oxa-1-azaspiro[3.3]heplan-l-yl)methanone]
62	Cc1cc(Cl)cc2c1CC(Nc1ncc(C(=O)N3CCC34COC4)cn1)C2 (stereo not shown) [Example 2, (2-((6-chloro-4-methyl-2,3-dihydro-1H-inden-2-yl)amino)pyrimidin-5-yl)(6-oxa-1-azaspiro[3.3]heptan-1-yl)methanone]
123	O=C(c1cnc(NC2Cc3ccc(Cl)c(F)c3C2)nc1)N1CCC12COC2 (stereo not drawn) [Example 9, (2-((5-chloro-4-fluoro-2,3-dihydro-lH-inden-2-yl)amino)pyrimidin-5-yl)(6-oxa-1-azaspiro[3.3]heplan-l-yl)methanone]
5.5	C[C@]1(O)C[C@]2(CCN2C(=O)c2cnc(N[C@H]3Cc4cc(Cl)cc(C#N)c4C3)nc2)C1 [Example 14, (cis)-6-chloro-2-(S)-((5-(6-hydroxy-6-methyl-1-azaspiro[3.3]heptane-1-carbonyl)pyrirnidin-2-yl)amino)-2,3-dihydro-1H-indene-4-carbonitrile]
6.5	CC1(C)CCN1C(=O)c1cnc(N[C@H]2Cc3cc(Cl)cc(C#N)c3C2)nc1 [Example 12, (S)-6-chloro-2-((5-(2,2-dimethylazetidine-1-carbonyl)pyrimidin-2-yl)amino)-2.3-dihydro-1H-indene-4-carbonitrile]
45.1	O=C(c1cnc(NC2Cc3cc(Cl)cc(F)c3C2)nc1)N1CCC12COC2 (single isomer, unassigned) [Example 16, (S or R)-(2-((6-chloro-4-fluoro-2,3-dihydro-1H-inden-2-yl)amino)pyrimidin-5-yl)(6-oxa-1-azaspiro[3.3]heptan-1-yl)methanone]
282	O=C(c1cnc(NC2Cc3cccc(Cl)c3C2)nc1)N1CCC12COC2 (stereo not shown) [Example 15, (2-((4-chloro-2,3-dihydro-1H-inden-2-yl)amino)pyrimidin-5-yl)(6-oxa-1-azaspiro[3.3]heptan-1-yl)methanone]
7.4	N#Cc1cc(Cl)cc2c1C[C@@H](Nc1ncc(C(=O)N3CCC34COC4)cn1)C2 [Example 11, (S)-2-((5-(6-oxa-1-azaspiro[3.3]heptane-1-carbonyl)pyrimidin-2-yl)amino)-6-chloro-2,3-dihydro-1H-indene-4-carbonitrile]
128	O=C(c1cnc(NC2Cc3ccc(Cl)c(Cl)c3C2)nc1)N1CCC12COC2 (stereo not shown) [Example 3, (2-((4,5-dichloro-2,3-dihydro-1H-inden-2-yl)amino)pyrimidin-5-yl)(6-oxa-1-azaspiro[3.3]heptan-1-yl)methanone]
111	O=C(c1cnc(NC2Cc3cc(Cl)cc(F)c3C2)nc1)N1CCC12COC2 (racemic) [Example 8, (2-((6-chloro-4-fluoro-2,3-dihydro-1H-inden-2-yl)amino)pyrimidin-5-yl)(6-oxa-1-azaspiro[3.3]heplan-l-yl)melhanone]
